Results on ten compounds are retold here after patent US7772180B2, “Hepatitis C virus inhibitors” (Bristol-Myers Squibb Company, priority 2006, dated 2010).

Where two headings read alike, the source gives them in different places.

Experiment [1] deals with T1, HCV NS3/4A protease complex, BMS strain (UniProt P27958, species not given/STRAIN_BMS).
T1 construct: other: NS3/4A BMS strain; activity range class; numeric values, unit not given; said of H77 and J4L6S; fused on or other part: A three-lysine solubilising tail at the C-terminus of NS4A; A His tag is implied by the pET21b vector and Ni-NTA purification; Both are printed for the H77 and J4L6S constructs and apply to BMS by inference
T1 sequence (P27958 1027-1657, change not shown, one chain of several): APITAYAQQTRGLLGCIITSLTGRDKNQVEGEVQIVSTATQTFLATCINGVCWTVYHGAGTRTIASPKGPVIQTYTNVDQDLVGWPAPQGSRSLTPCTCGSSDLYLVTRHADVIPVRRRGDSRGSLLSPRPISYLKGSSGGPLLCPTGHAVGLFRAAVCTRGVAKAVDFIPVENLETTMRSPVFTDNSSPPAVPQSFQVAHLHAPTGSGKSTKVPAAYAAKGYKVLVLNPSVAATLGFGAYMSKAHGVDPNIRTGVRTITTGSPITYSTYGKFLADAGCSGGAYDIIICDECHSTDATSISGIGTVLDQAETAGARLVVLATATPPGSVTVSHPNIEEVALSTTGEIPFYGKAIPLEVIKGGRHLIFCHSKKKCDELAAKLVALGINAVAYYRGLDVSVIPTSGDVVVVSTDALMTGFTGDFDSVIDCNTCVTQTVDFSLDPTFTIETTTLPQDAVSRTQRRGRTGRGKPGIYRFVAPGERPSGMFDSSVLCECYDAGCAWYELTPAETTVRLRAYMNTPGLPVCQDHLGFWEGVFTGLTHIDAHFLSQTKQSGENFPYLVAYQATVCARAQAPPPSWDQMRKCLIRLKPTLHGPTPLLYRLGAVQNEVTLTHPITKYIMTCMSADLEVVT
The experiment is described as follows: FRET peptide assay to monitor HCV NS3/4A proteolytic activity (BMS strain). The experiment is classed as biochemical, Hepatitis C virus (genotype 1a). Conditions: read-out: HCV Protease (IC50), NS3/4A BMS strain. From the text:
HCV NS3 protease complexes, derived from the BMS strain, H77 strain or J4L6S strain, were generated, as described below. These purified recombinant proteins were generated for use in a homogeneous assay (see below) to provide an indication of how effective compounds of the present disclosure would be in inhibiting HCV NS3 proteolytic activity.
Serum from an HCV-infected patient was obtained from Dr. T. Wright, San Francisco Hospital. An engineered full-length cDNA (compliment deoxyribonucleic acid) template of the HCV genome (BMS strain) was constructed from DNA fragments obtained by reverse transcription-PCR (RT-PCR) of serum RNA (ribonucleic acid) and using primers selected on the basis of homology between other genotype 1a strains. From the determination of the entire genome sequence, a genotype 1a was assigned to the HCV isolate according to the classification of Simmonds et al. (See P Simmonds, K A Rose, S Graham, S W Chan, F McOmish, B C Dow, E A Follett, P L Yap and H Marsden, J. Clin. Microbiol., 31(6), 1493-1503 (1993)). […] The infectious clones, H77 (1a genotype) and J4L6S (1b genotype) were obtained from R. Purcell (NIH) and the sequences are published in Genbank (AAB67036, see Yanagi, M., Purcell, R. H., Emerson, S. U. and Bukh, J. Proc. Natl. Acad. Sci. U.S.A. 94(16), 8738-8743 (1997); AF054247, see Yanagi, M., St Claire, M., Shapiro, M., Emerson, S. U., Purcell, R. H. and Bukh, J. Virology 244 (1), 161-172. (1998)).
NS3/4A protease complex-containing fractions were pooled and loaded on a desalting column Superdex-S200 pre-equilibrated with buffer D (25 mM HEPES, pH 7.5, 20% glycerol, 300 mM NaCl, 0.2% Triton X-100, 10 mM βME). Sample was loaded at a flow rate of 1 mL/min. NS3/4A protease complex-containing fractions were pooled and concentrated to approximately 0.5 mg/ml. The purity of the NS3/4A protease complexes, derived from the BMS, H77 and J4L6S strains, were judged to be greater than 90% by SDS-PAGE and mass spectrometry analyses. The enzyme was stored at −80° C., thawed on ice and diluted prior to use in assay buffer.
The purpose of this in vitro assay was to measure the inhibition of HCV NS3 protease complexes, derived from the BMS strain, H77 strain or J4L6S strain, as described above, by compounds of the present disclosure. This assay provides an indication of how effective compounds of the present disclosure would be in inhibiting HCV NS3 proteolytic activity.
In order to monitor HCV NS3/4A protease activity, an NS3/4A peptide substrate was used. The substrate was RET S1 (Resonance Energy Transfer Depsipeptide Substrate; AnaSpec, Inc. cat #22991) (FRET peptide), described by Taliani et al. in Anal. Biochem. 240(2):60-67 (1996). The sequence of this peptide is loosely based on the NS4A/NS4B natural cleavage site for the HCV NS3 protease except there is an ester linkage rather than an amide bond at the cleavage site. The peptide also contains a fluorescence donor, EDANS, near one end of the peptide and an acceptor, DABCYL, near the other end. The fluorescence of the peptide is quenched by […] resonance energy transfer (RET) between the donor and the acceptor, but as the NS3 protease cleaves the peptide the products are released from RET quenching and the fluorescence of the donor becomes apparent.
The peptide substrate was incubated with one of the three recombinant NS3/4A protease complexes, in the absence or presence of a compound of the present disclosure. The inhibitory effects of a compound were determined by monitoring the formation of fluorescent reaction product in real time using a Cytofluor Series 4000.
Assay buffer: 50 mM HEPES, pH 7.5; 0.15 M NaCl; 0.1% Triton; 15% Glycerol; 10 mM βME. Substrate: 2 μM final concentration (from a 2 mM stock solution in DMSO stored at −20° C.). HCV NS3/4A protease type 1a (1b), 2-3 nM final concentration (from a 5 μM stock solution in 25 mM HEPES, pH 7.5, 20% glycerol, 300 mM NaCl, 0.2% Triton-X100, 10 mM βME). […]

For experiment [2], the system named is HCV replicon (strain 1b) in HUH-7 cells. In words: HCV replicon FRET assay. The experiment is classed as cell-based, Hepatitis C virus. The source says:
An HCV replicon whole cell system was established as described by Lohmann V, Korner F, Koch J, Herian U, Theilmann L, Bartenschlager R., Science 285(5424): 110-3 (1999). This system enabled us to evaluate the effects of our HCV Protease compounds on HCV RNA replication. Briefly, using the HCV strain 1b sequence described in the Lohmann paper (Assession number: AJ238799), an HCV cDNA was synthesized by Operon Technologies, Inc. (Alameda, Calif.), and the full-length replicon was then assembled in plasmid pGem9zf(+) (Promega, Madison, Wis.) using standard molecular biology techniques. The replicon consists of (i) the HCV 5′ UTR fused to the first 12 amino acids of the capsid protein, (ii) the neomycin phosphotransferase gene (neo), (iii) the IRES from encephalomyocarditis virus (EMCV), and (iv) HCV NS3 to NS5B genes and the HCV 3′ UTR. Plasmid DNAs were linearized with ScaI and RNA transcripts were synthesized in vitro using the T7 MegaScript transcription kit (Ambion, Austin, Tex.) according to manufacturer's directions. In vitro transcripts of the cDNA were transfected into the human hepatoma cell line, HUH-7. […] Resulting cell lines were characterized for positive and negative strand RNA production and protein production over time.
The HCV replicon FRET assay was developed to monitor the inhibitory effects of compounds described in the disclosure on HCV viral replication. HUH-7 cells, constitutively expressing the HCV replicon, were grown in Dulbecco's Modified Eagle Media (DMEM) (Gibco-BRL) containing 10% Fetal calf serum (FCS) (Sigma) and 1 mg/ml G418 (Gibco-BRL). Cells were seeded the night before (1.5×10^4 cells/well) in 96-well tissue-culture sterile plates. Compound and no compound controls were prepared in DMEM containing 4% FCS, 1:100 Penicillin/Streptomysin (Gibco-BRL), 1:100 L-glutamine and 5% DMSO in the dilution plate (0.5% DMSO final concentration in the assay). Compound/DMSO mixes were added to the cells and incubated for 4 days at 37° C. After 4 days, cells were first assessed for cytotoxicity using alamar Blue (Trek Diagnotstic Systems) for a CC50 reading. The toxicity of compound (CC50) was determined by adding 1/10th volume of alamarBlue to the media incubating the cells. After 4 hours, the fluorescence signal from each well was read, with an excitation wavelength at 530 nm and an emission wavelength of 580 nm, using the Cytofluor Series 4000 (Perspective Biosystems). Plates were then rinsed thoroughly with Phosphate-Buffered Saline (PBS) (3 times 150 μl).
(In general: A replicon is a self-replicating genome or part of one, used to study replication in cells.)

[3] abbreviates: Hepatitis C virus, Huh-7, read-out: HCV Pro Replicon (EC50), HCV replicon cell assay, activity range class.
The mark [4] stands for this setting: Hepatitis C virus, Huh-7, read-out: HCV Pro Replicon (EC50), HCV replicon cell assay, numeric values, unit inferred.

For orientation: IC50 means the point on the concentration scale where inhibition reaches its midpoint. What is called EC50 is the midpoint of the concentration-response curve. Consider `C=C[C@@H]1C[C@]1(NC(=O)[C@@H]1C[C@@H](Oc2ncc(OC)c3ccc(Cl)cc23)CN1C(=O)C(Nc1cncc(C(F)(F)F)c1)C(C)(C)C)C(=O)NS(=O)(=O)C1CC1` (single isomer, unassigned) [27 second isomer], for which, in experiment [1] (activity range class), the IC50 lay in the range of 20 to 200 nM. Moreover, the EC50 in experiment [2] (setting [3]) lay within 3 to 100 nM.
For the compound `C=C[C@@H]1C[C@]1(NC(=O)[C@@H]1C[C@@H](Oc2nccc3cc(OC)ccc23)CN1C(=O)[C@@H](Nc1nc(C)cc(C)n1)C(C)C)C(=O)NS(=O)(=O)C1CC1` [6 second isomer, N-(4,6-dimethyl-2-pyrimidinyl)-L-valyl-(4R)—N-((1R,2S)-1-((cyclopropylsulfonyl)carbamoyl)-2-vinylcyclopropyl)-4-((6-methoxy-1-isoquinolinyl)oxy)-L-prolinamide], the IC50 in experiment [1] (activity range class) fell in the range of 0.6 to 20 nM. In addition, the concentration for a half-maximal effect (EC50) in experiment [2] (setting [3]) was 100 to 1000 nM.
The matching figures for `C=C[C@@H]1C[C@]1(NC(=O)[C@@H]1C[C@@H](Oc2nccc3cc(OC)ccc23)CN1C(=O)C(Nc1cc(C)cc(C)n1)C(C)C)C(=O)NS(=O)(=O)N(C)C` (single isomer, unassigned) [Compound 16]: 0.6 to 20 nM and 3 to 100 nM.
`C=C[C@@H]1C[C@]1(NC(=O)[C@@H]1C[C@@H](Oc2ncc(OC)c3ccc(Cl)cc23)CN1C(=O)C(Nc1cccc(C)n1)C(C)(C)C)C(=O)NS(=O)(=O)C1CC1` (single isomer, unassigned) [28 first isomer]: the IC50 in experiment [1] (activity range class) is 0.6 to 20 nM. The EC50 in experiment [2] (read-out: HCV Pro Replicon (EC50), HCV replicon cell assay, activity range class) fell in the range of 3 to 100 nM.
On to `C=C[C@@H]1C[C@]1(NC(=O)[C@@H]1C[C@@H](Oc2ncc(OC)c3ccc(Cl)cc23)CN1C(=O)[C@H](Nc1ccc(S(N)(=O)=O)cc1)C(C)(C)C)C(=O)NS(=O)(=O)C1CC1` [Compound 215B, 3-methyl-N-(4-sulfamoylphenyl)-D-valyl-(4R)-4-((7-chloro-4-methoxy-1-isoquinolinyl)oxy)-N-((1R,2S)-1-((cyclopropylsulfonyl)carbamoyl)-2-vinylcyclopropyl)-L-prolinamide], for which the IC50 in experiment [1] (numeric values, unit inferred) was determined as 830 nM. Further, in experiment [2] (setting [4]), the EC50 stood at 5490 nM.
On to `C=C[C@@H]1C[C@]1(NC(=O)[C@@H]1C[C@@H](Oc2nccc3cc(OC)ccc23)CN1C(=O)[C@H](Nc1ccccn1)C(C)(C)C)C(=O)NS(=O)(=O)C1CC1` [12 second isomer, 3-methyl-N-2-pyridinyl-D-valyl-(4R)—N-((1R,2S)-1-((cyclopropylsulfonyl)carbamoyl)-2-vinylcyclopropyl)-4-((6-methoxy-1-isoquinolinyl)oxy)-L-prolinamide], for which the IC50 in experiment [1] (activity range class) fell in the range of 20 to 200 nM. In addition, the EC50 in experiment [2] (setting [3]) was in the range of 100 to 1000 nM.
The matching figures for `C=C[C@@H]1C[C@]1(NC(=O)[C@@H]1C[C@@H](Oc2ncc(OC)c3ccc(Cl)cc23)CN1C(=O)C(CC)Nc1nsnc1OC)C(=O)NS(=O)(=O)C1CC1` (some centres unmarked) [Compound 240]: 0.6 to 20 nM and 100 to 1000 nM.
Taken in the same sequence, the figures for `C=C[C@@H]1C[C@]1(NC(=O)[C@@H]1C[C@@H](Oc2ncc(OC)c3ccc(Cl)cc23)CN1C(=O)[C@@H](Nc1cccc(S(N)(=O)=O)c1)C(C)(C)C)C(=O)NS(=O)(=O)C1CC1` [207 first isomer, 3-methyl-N-(3-sulfamoylphenyl)-L-valyl-(4R)-4-((7-chloro-4-methoxy-1-isoquinolinyl)oxy)-N-((1R,2S)-1-((cyclopropylsulfonyl)carbamoyl)-2-vinylcyclopropyl)-L-prolinamide] were 0.6 to 20 nM and 3 to 100 nM.
Consider `C=C[C@@H]1C[C@]1(NC(=O)[C@@H]1C[C@@H](Oc2ncc(OC)c3ccc(Cl)cc23)CN1C(=O)[C@@H](Nc1ccc(C(=O)O)cc1)C(C)(C)C)C(=O)NS(=O)(=O)C1CC1` [209 first isomer, N-(4-carboxyphenyl)-3-methyl-L-valyl-(4R)-4-((7-chloro-4-methoxy-1-isoquinolinyl)oxy)-N-((1R,2S)-1-((cyclopropylsulfonyl)carbamoyl)-2-vinylcyclopropyl)-L-prolinamide], for which the IC50 in experiment [1] (activity range class) lay in the range of 0.6 to 20 nM. In addition, the EC50 in experiment [2] (setting [3]) is 3 to 100 nM.
As to `C=CC1CC1(NC(=O)C1CC(Oc2ncc(OC)c3ccc(Cl)cc23)CN1C(=O)C(Nc1cccc(F)c1)C(C)(C)C)C(=O)NS(=O)(=O)C1CC1` (centres unmarked) [Compound 200B], in experiment [1] (numeric values, unit inferred), the IC50 turned out to be 160 nM. Besides, the EC50 in experiment [2] (setting [4]) was 195 nM.
